ChEMBL document CHEMBL1201862, “PubChem BioAssay data set” (2004)
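Test compounds were applied to cells in 96-well plates for 48 hours at 5 doses. GI50 is the concentration that inhibits growth by half.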 Calls of active or inactive are those of the source. Rule as the data show it: active = GI50 up to about 1.1 µM and inactive = higher.

What was measured:
Assay in all cases: NCI tumour cell line growth inhibition, 48 h
[1] = test system: DMS-273
[2] = test system: KM-20L2
[3] = test system: LXFL 529
[4] = test system: DMS-114
[5] = test system: SNB-78
[6] = test system: M19-MEL
[7] = test system: XF498
[8] = test system: HOP-18
[9] = test system: RXF 631

Measured: GI50

C[N+](C)(C)CC(=O)N/N=C(\C(=O)Nc1ccc(Cl)cc1)C1C(=O)N(c2ccccc2)N=C1N (stereo unspecified)
inactive: [1] > 100 µM | [2] > 100 µM | [3] > 100 µM | [4] > 100 µM | [5] > 100 µM | [6] > 100 µM

COc1cc(Cl)cc(N(O)C(C)=O)c1OCc1ccccc1
inactive: [1] 49.9 µM | [7] 36.9 µM | [2] 83.2 µM | [3] 75.9 µM | [4] 25.6 µM | [8] > 100 µM | [5] > 100 µM | [6] 70.8 µM

CCCCCCCC(=O)OCC1OC(n2cc(F)c(=O)[nH]c2=O)C(NC(=O)OCc2ccccc2)C(O)C1O (stereo unspecified)
inactive: [1] 40 µM | [2] 47.1 µM | [3] 31.3 µM | [4] 41.6 µM | [5] > 100 µM | [6] 56.8 µM

CN(C)/C=C/C(=CC=[N+](C)C)/C=C/N(C)C.[O-][Cl+3]([O-])([O-])[O-]
inactive: [1] > 100 µM | [7] > 100 µM | [3] > 100 µM | [9] > 100 µM | [5] > 100 µM

CC(C)NCCCC(C)Nc1ccnc2ccc3nn(C)nc3c12 (stereo unspecified)
inactive: [1] 41.7 µM | [7] > 100 µM | [2] > 10 µM | [3] 57.1 µM | [4] 61.7 µM | [8] 9.4 µM | [5] 43.1 µM | [6] 84.9 µM

COC(=O)C(C(=O)Cc1ccccc1[N+](=O)[O-])C(=O)OC
inactive: [1] > 100 µM | [7] > 100 µM | [2] > 100 µM | [3] > 100 µM | [9] > 100 µM | [8] > 100 µM | [6] > 100 µM

c1cncc(C2c3[nH]c4ccccc4c3CCN2CCCN2CCCCC2)c1 (stereo unspecified)
inactive: [1] > 100 µM | [7] 57.4 µM | [2] > 100 µM | [3] 68.7 µM | [4] > 100 µM | [5] > 100 µM | [6] > 100 µM

CN(C)CC1CCC(CN(C)C)C1=NO (stereo unspecified)
inactive: [1] > 100 µM | [2] > 100 µM | [3] > 100 µM | [4] > 100 µM | [8] > 100 µM | [5] > 100 µM | [6] > 100 µM

COC(=O)[C@]12CCC(C)[C@H](C)[C@H]1C1=CCC3[C@@]4(C)CC[C@H](OC(C)=O)C(C)(C)C4CC[C@@]3(C)C1(C)C(O)C2 (stereo partly specified)
inactive: [1] > 100 µM | [7] 27.9 µM | [2] > 100 µM | [3] 77.3 µM | [4] 61.7 µM | [8] > 100 µM | [5] > 100 µM | [6] > 100 µM

CCOC(=O)C1(C(=O)OCC)C(C(C)(C)C)=C(C)c2ccccc21
inactive: [1] 12.1 µM | [7] 12.6 µM | [2] 13.5 µM | [3] 11.6 µM | [9] 13.7 µM | [4] 11.5 µM | [8] 29.1 µM | [6] 14.1 µM

Cc1nc(N)sc1C(=O)/C=C/c1ccc([N+](=O)[O-])cc1
inactive: [1] > 100 µM | [2] > 100 µM | [4] > 100 µM | [8] > 100 µM | [5] > 100 µM | [6] > 100 µM

O=c1[nH]cnc2c(COCCO)c[nH]c12
inactive: [1] > 100 µM | [7] > 100 µM | [2] > 100 µM | [3] > 100 µM | [9] > 100 µM | [4] > 100 µM | [8] > 100 µM | [5] > 100 µM | [6] > 100 µM

COC(=O)C(=O)C(C(=O)C(=O)Nc1cc(C)ccc1C)c1nc2ccc(C(=O)c3ccccc3)cc2nc1O (stereo unspecified)
inactive: [1] 74.3 µM | [2] > 100 µM | [3] 43.5 µM | [9] > 100 µM | [4] 51.4 µM | [8] 23.8 µM | [5] 58.6 µM | [6] 88.7 µM

COC1(C)Cc2c(c(C)c(O)c3c2C(=O)C=C(Cl)C3=O)O1 (stereo unspecified)
inactive: [1] > 64.6 µM | [7] 23.6 µM | [2] > 100 µM | [3] 15.1 µM | [4] 28 µM | [6] 16.4 µM

O=C1c2ccccc2C(=O)c2[nH]c(Cc3ccc(F)cc3)nc21
inactive: [1] 18.1 µM | [7] 17.2 µM | [2] 17.1 µM | [3] 26.4 µM | [9] 15.9 µM | [4] > 10 µM | [6] 16.9 µM

O=C(/C=C/c1ccc(Cl)cc1)c1ccc(Cl)c(Cl)c1
inactive: [1] 40.9 µM | [2] 41.2 µM | [3] 18.9 µM | [4] 23.6 µM | [5] > 10 µM | [6] 27.8 µM

O=C(Nc1cc(Cl)cc(Cl)c1)/C(Cc1nc2ccccc2nc1O)=N/NC(=O)c1ccncc1
inactive: [2] > 100 µM | [3] > 100 µM | [9] > 100 µM | [4] > 100 µM | [5] > 100 µM | [6] > 100 µM

Cc1ccc(NC(=O)C(=O)C2C(=O)NC(=O)NC2=O)c(C)c1
inactive: [1] > 100 µM | [2] > 100 µM | [3] > 100 µM | [9] > 100 µM | [4] > 100 µM | [8] > 100 µM | [5] > 100 µM | [6] > 100 µM

COc1ccc(NC(=O)CC/C(CC(=O)C(C)(C)C)=N\NC(=O)C(=O)NN)cc1
inactive: [1] > 100 µM | [2] > 100 µM | [3] > 100 µM | [9] > 100 µM | [4] > 100 µM | [8] > 100 µM | [5] > 100 µM | [6] > 100 µM

CCOC(=O)c1c2ccc(/C=C/C(=O)OC)ccc-2c(C(=O)OCC)c1N
inactive: [1] > 100 µM | [2] > 100 µM | [3] > 100 µM | [4] > 100 µM | [8] > 100 µM | [6] > 100 µM

N#CC(C(=O)/C(=N/NC(=O)c1ccccc1O)C(C#N)c1ccccc1)c1ccccc1 (stereo unspecified)
inactive: [1] > 100 µM | [7] > 100 µM | [2] > 100 µM | [3] > 100 µM | [9] > 100 µM | [4] > 100 µM | [8] > 100 µM | [5] > 100 µM | [6] > 100 µM

CC(C)N1CCOC(c2ccc(O)c(O)c2)C1 (stereo unspecified)
inactive: [1] > 100 µM | [7] > 100 µM | [2] > 100 µM | [3] > 100 µM | [9] > 100 µM | [4] > 100 µM | [5] > 100 µM | [6] > 100 µM

COC(=O)C1=CC2C(=O)OC1CC2C#N (stereo unspecified)
inactive: [1] > 100 µM | [7] > 100 µM | [2] > 100 µM | [3] > 100 µM | [4] > 100 µM | [8] > 100 µM | [5] > 100 µM

Nc1ccc2ncc(NCc3ccc(F)cc3)nc2c1
inactive: [1] > 100 µM | [7] 19.5 µM | [2] > 100 µM | [3] > 100 µM | [4] 49 µM | [8] > 100 µM | [5] > 100 µM | [6] > 100 µM

CN(C(=O)C12C3C4C1C1C2C3C41I)C(C)(C)C (stereo unspecified)
inactive: [1] 47 µM | [7] > 61.9 µM | [2] > 89.3 µM | [3] > 87.1 µM | [9] 53.2 µM | [4] > 59 µM | [8] > 100 µM | [5] > 100 µM | [6] > 100 µM
